Among the data in article PMC6673703, “14-3-3 signal adaptor and scaffold proteins mediate GPCR trafficking” (Scientific Reports, 2019) are EC50 values, retold here.

This assay deals with T1, sphingosine-1-phosphate receptor 1 (S1PR1) (Homo sapiens, UniProt P21453).
T1 construct: full-length, C-terminal TEV fusion
In words: LinkLight S1PR1/β-arrestin interaction assay in HEK293 cells. It counts as cell-based.

T1 sequence (P21453 whole entry, the tested form may be a part): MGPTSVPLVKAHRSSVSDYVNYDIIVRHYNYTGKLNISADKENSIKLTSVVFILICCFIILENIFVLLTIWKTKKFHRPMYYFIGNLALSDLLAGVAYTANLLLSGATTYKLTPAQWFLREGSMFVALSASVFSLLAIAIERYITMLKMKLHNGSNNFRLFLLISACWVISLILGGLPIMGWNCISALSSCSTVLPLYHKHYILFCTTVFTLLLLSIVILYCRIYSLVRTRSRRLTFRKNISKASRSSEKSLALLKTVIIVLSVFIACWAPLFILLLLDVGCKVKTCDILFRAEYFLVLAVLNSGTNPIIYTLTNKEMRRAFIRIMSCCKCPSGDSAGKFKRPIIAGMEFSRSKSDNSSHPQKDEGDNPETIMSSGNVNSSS
T1 sequence (P32121 whole entry partner, the tested form may be a part): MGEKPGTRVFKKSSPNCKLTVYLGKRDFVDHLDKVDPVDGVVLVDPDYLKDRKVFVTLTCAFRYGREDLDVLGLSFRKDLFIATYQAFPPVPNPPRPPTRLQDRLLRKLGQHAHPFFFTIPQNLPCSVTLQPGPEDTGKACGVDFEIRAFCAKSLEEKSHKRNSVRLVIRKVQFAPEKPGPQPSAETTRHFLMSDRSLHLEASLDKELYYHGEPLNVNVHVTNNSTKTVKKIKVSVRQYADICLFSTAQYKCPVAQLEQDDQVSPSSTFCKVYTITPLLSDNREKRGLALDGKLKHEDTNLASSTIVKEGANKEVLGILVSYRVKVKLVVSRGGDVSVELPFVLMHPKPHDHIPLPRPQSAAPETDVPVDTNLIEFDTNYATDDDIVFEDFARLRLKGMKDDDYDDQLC

Regarding `CCCCCCCCCCCCC/C=C/[C@@H](O)[C@@H](N)COP(=O)(O)O` [S1P], the EC50 turned out to be 0.129 µM.
